We go through 1 compound from patent US20200113982A1, “Composition and Uses Thereof” (Arborvitae Health and Wellbeing Pty. Ltd., priority 2015, published 2020).

This series is described as follows: Case Study 5: Patient A, high cholesterol, blood tests. In kind it is in vivo, human. To be noted: patient-reported, earlier statin use. On the procedure:
Patient A is a person who has had high cholesterol for approximately 20 years, and who is reasonably fit and is not overweight.
Patient A has been taking 100 mL of the composition of Example 1 each day for a period of 3 weeks. The results of a blood test on 14 Jan. 2015 (prior to taking the composition of Example 1) and a blood test on 24 Jun. 2015 (after taking the composition of Example 1 for 3 weeks) gave the results in Table 6: […]

The structures appear in SMILES notation.

Turning to `CC(C)c1c(C(=O)Nc2ccccc2)c(-c2ccccc2)c(-c2ccc(F)cc2)n1CC[C@@H](O)C[C@@H](O)CC(=O)O` [Lipitor], the side effects result is “muscle aches and pain, tiredness, joint pain and a general feeling of not being well”.
